Source: patent publication US8952024B2, “Herbicidal pyrimidone derivatives” (E I du Pont de Nemours and Company, priority 2009, dated 2015)

How the values were obtained:
Type in all cases: in vivo
[1] = test system: corn (Zea mays); assay: Test A pre-/postemergence plant response
Summary of the method: (§1)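 Injury scores (0, no effect; 100, complete control) come from visual comparison with untreated controls roughly ten days post-treatment. Test chemicals in a surfactant-containing non-phytotoxic solvent were applied as a directed soil spray preemergence and to one- to two-leaf seedlings postemergence.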

[2] = test system: barnyardgrass (Echinochloa crus-galli); assay: Test A pre-/postemergence plant response
Summary of the method: as §1

[3] = test system: morningglory (Ipomoea spp.); assay: Test A pre-/postemergence plant response
Summary of the method: as §1

[4] = test system: wheat (Triticum aestivum); assay: Test A pre-/postemergence plant response
Summary of the method: as §1

[5] = test system: velvetleaf (Abutilon theophrasti); assay: Test A pre-/postemergence plant response
Summary of the method: as §1

[6] = test system: pigweed (Amaranthus retroflexus); assay: Test A pre-/postemergence plant response
Summary of the method: as §1

[7] = test system: large crabgrass (Digitaria sanguinalis); assay: Test A pre-/postemergence plant response
Summary of the method: as §1

[8] = test system: giant foxtail (Setaria faberii); assay: Test A pre-/postemergence plant response
Summary of the method: as §1

[9] = test system: ducksalad (Heteranthera limosa); assay: Test B flooded paddy test
Summary of the method: (§2)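 Seedlings reaching 2 leaves are flooded 3 cm deep; test material is delivered to that water, which stays at the same depth. Plants remain in a greenhouse 13–15 days and are then scored by eye versus controls from 0 to 100.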

[10] = test system: barnyardgrass (Echinochloa crus-galli); assay: Test B flooded paddy test
Summary of the method: as §2

[11] = test system: umbrella sedge (Cyperus difformis); assay: Test B flooded paddy test
Summary of the method: as §2

[12] = test system: rice (Oryza sativa); assay: Test B flooded paddy test
Summary of the method: as §2

[13] = Postemergence, 125 g ai/ha, visual injury, 0 to 100 scale (0 no effect, 100 complete control), approx. ten days
[14] = Postemergence, 500 g ai/ha, 0 to 100 scale, 0 = no effect, 100 = complete control, approx. ten days
[15] = Preemergence, 125 g ai/ha, 0 to 100 scale, 0 = no effect, 100 = complete control
[16] = Preemergence, 500 g ai/ha, visual injury, 0 to 100 scale (0 no effect, 100 complete control), approx. ten days
[17] = 250 g ai/ha, flooded paddy test, visual rating on 0 to 100 scale (0 no effect, 100 complete control) after 13 to 15 days
[18] = Flood (flooded paddy test), 62 g ai/ha, scale 0 to 100, 0 is no effect, 100 is complete control, 13 to 15 days

Cc1ccc(-n2c(-c3ccccc3)ncc(C(=O)C3=C(O)CCCC3=O)c2=O)c(C)c1 [Compound 28]
70: Plant response rating, Barnyardgrass [2, 16] | Plant response rating, Ducksalad [9, 18] | Plant response rating, Sedge, Umbrella [11, 18]
0: Corn plant response rating [1, 13] | Plant response rating, Corn [1, 14] | Plant response rating, Corn [1, 15] | Plant response rating, Corn [1, 16] | Morningglory plant response rating [3, 13] | Wheat plant response rating [4, 13] | Plant response rating, Wheat [4, 14] | Plant response rating, Wheat [4, 15] | Plant response rating, Wheat [4, 16] | Plant response rating, Foxtail, Giant [8, 15] | Plant response rating, Flood, Rice [12, 17] | Plant response rating, Rice [12, 18]
100: Velvetleaf plant response rating [5, 13] | Plant response rating, Velvetleaf [5, 14] | Pigweed plant response rating [6, 13] | Plant response rating, Pigweed [6, 14] | Plant response rating, Pigweed [6, 16]
10: Plant response rating, Barnyardgrass [2, 15] | Plant response rating, Morningglory [3, 14] | Plant response rating, Barnyardgrass [10, 18]
80: Plant response rating, Morningglory [3, 16] | Plant response rating, Velvetleaf [5, 16] | Plant response rating, Pigweed [6, 15] | Plant response rating, Crabgrass, Large [7, 14] | Plant response rating, Foxtail, Giant [8, 14] | Plant response rating, Flood, Sedge, Umbrella [11, 17]
60: Plant response rating, Crabgrass, Large [7, 16]
30: Barnyardgrass plant response rating [2, 13] | Foxtail, Giant plant response rating [8, 13] | Plant response rating, Foxtail, Giant [8, 16]
40: Crabgrass, Large plant response rating [7, 13]
20: Plant response rating, Morningglory [3, 15] | Plant response rating, Velvetleaf [5, 15] | Plant response rating, Crabgrass, Large [7, 15] | Plant response rating, Flood, Barnyardgrass [10, 17]
90: Plant response rating, Barnyardgrass [2, 14]
85: Plant response rating, Flood, Ducksalad [9, 17]
